Reference: ChEMBL document CHEMBL1201862, “PubChem BioAssay data set” (2004)
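Compound exposure: 48 hours, 5 concentrations, 96-well plates. At the GI50, growth is halved.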 Activity calls are given as the source filed them. No stated cut-off is given here; in the data, active = GI50 up to about 1.1 µM and inactive = higher.

How the values were obtained:
Experiment in all cases: NCI tumour cell line growth inhibition, 48 h
786-0 = tested on: 786-0
ACHN = tested on: ACHN
CAKI-1 = tested on: CAKI-1
EKVX = tested on: EKVX
HL-60 = tested on: HL-60
MDA-MB-435 = tested on: MDA-MB-435
MDA-N = tested on: MDA-N
Malme-3M = tested on: Malme-3M
NCI-H226 = tested on: NCI-H226
NCI/ADR-RES = tested on: NCI/ADR-RES
OVCAR-8 = tested on: OVCAR-8
SF-268 = tested on: SF-268
SN12C = tested on: SN12C
SNB-75 = tested on: SNB-75
T47D = tested on: T47D
UACC-257 = tested on: UACC-257
UACC-62 = tested on: UACC-62
UO-31 = tested on: UO-31
A498 = tested on: A498

Measured: GI50

CC1(C)NC(C(=O)c2ccccc2)=[N+]([O-])C1(O)c1ccccc1 (configuration not stated)
inactive: 786-0 > 100 µM | ACHN > 100 µM | CAKI-1 > 100 µM | EKVX > 100 µM | HL-60 > 100 µM | MDA-MB-435 > 100 µM | MDA-N > 100 µM | Malme-3M > 100 µM | NCI-H226 > 100 µM | NCI/ADR-RES > 100 µM | OVCAR-8 > 100 µM | SF-268 > 100 µM | SN12C > 100 µM | SNB-75 > 100 µM | T47D > 100 µM | UACC-257 54.5 µM | UACC-62 > 100 µM | UO-31 69.8 µM

NC(=O)C(NC=O)c1ccccc1 (configuration not stated)
inactive: 786-0 > 100 µM | ACHN > 100 µM | CAKI-1 > 100 µM | EKVX > 100 µM | HL-60 > 100 µM | MDA-MB-435 > 100 µM | MDA-N > 100 µM | NCI/ADR-RES > 100 µM | OVCAR-8 > 100 µM | SF-268 > 100 µM | SN12C > 100 µM | SNB-75 > 100 µM | T47D > 100 µM | UACC-257 > 100 µM | UACC-62 > 100 µM | UO-31 > 100 µM

C=CCOC1OC(CO[Si](C)(C)C(C)(C)C)C(OCc2ccccc2)C(OCc2ccccc2)C1OCc1ccccc1 (configuration not stated)
inactive: 786-0 10.5 µM | ACHN 40.4 µM | CAKI-1 54.5 µM | EKVX > 100 µM | HL-60 > 100 µM | MDA-MB-435 > 100 µM | MDA-N > 100 µM | Malme-3M 27.5 µM | NCI-H226 > 100 µM | NCI/ADR-RES 36.6 µM | OVCAR-8 37.5 µM | SF-268 40.5 µM | SN12C 71.8 µM | SNB-75 21.5 µM | T47D 35.6 µM | UACC-257 46.8 µM | UACC-62 27.2 µM | UO-31 46.1 µM

C=C1[C@H](OCC(C)C)[C@@H](OCC(C)C)[C@@H](O)C(C)(C)/C=C/[C@H](C)C(=O)[C@@]2(O)C[C@H](C)[C@H](O)[C@@H]2[C@H]1OCC(C)C
inactive: 786-0 4.49 µM | A498 3.23 µM | ACHN > 7.5 µM | CAKI-1 2.57 µM | MDA-MB-435 3.01 µM | MDA-N 1.54 µM | NCI/ADR-RES > 7.5 µM | OVCAR-8 > 7.5 µM | SF-268 6.24 µM | SN12C > 7.5 µM | SNB-75 3.02 µM | T47D > 7.5 µM | UACC-257 > 7.5 µM | UACC-62 7.19 µM | UO-31 6.52 µM

COc1cc(-c2cc(=O)c3c(OC)c(OC)c(OC)c(OC)c3o2)c(OC)c(OC)c1OC
inactive: 786-0 47.5 µM | ACHN 22 µM | CAKI-1 27.5 µM | EKVX 66.8 µM | HL-60 46.7 µM | MDA-MB-435 45.8 µM | MDA-N 41.4 µM | Malme-3M 23.8 µM | NCI-H226 38.1 µM | NCI/ADR-RES 17.9 µM | OVCAR-8 28.6 µM | SF-268 63.1 µM | SN12C 35.2 µM | SNB-75 16.4 µM | T47D 16.2 µM | UACC-257 42.3 µM | UACC-62 21.2 µM | UO-31 21.6 µM

Cc1cccc2c(=O)c3c(O)cc(O)cc3n(C)c12
inactive: 786-0 > 100 µM | A498 7.29 µM | ACHN > 100 µM | CAKI-1 > 100 µM | EKVX 7.41 µM | HL-60 > 100 µM | MDA-MB-435 > 100 µM | MDA-N > 100 µM | Malme-3M > 100 µM | NCI-H226 > 100 µM | NCI/ADR-RES > 100 µM | OVCAR-8 > 100 µM | SF-268 > 100 µM | SN12C > 100 µM | SNB-75 85.7 µM | UACC-257 > 100 µM | UACC-62 > 100 µM

O=C(n1c(=O)n(-c2ccc(Cl)cc2)c(=O)n1C(=O)C(Cl)(Cl)Cl)C(Cl)(Cl)Cl
inactive: 786-0 > 100 µM | A498 > 100 µM | ACHN 12.7 µM | CAKI-1 > 100 µM | EKVX > 100 µM | HL-60 > 100 µM | MDA-MB-435 31.6 µM | MDA-N > 100 µM | Malme-3M > 100 µM | NCI/ADR-RES 43.5 µM | OVCAR-8 > 100 µM | SF-268 50 µM | SN12C > 100 µM | T47D > 100 µM | UACC-257 > 100 µM | UACC-62 > 100 µM | UO-31 31 µM

CC(C)(C)OCC1NC(=O)[C@@H]2Cc3c([nH]c4ccccc34)C(C3CCCCC3)N2C1=O (some centres not stated)
inactive: 786-0 22.5 µM | A498 32.2 µM | ACHN 27 µM | CAKI-1 17.7 µM | EKVX 27.2 µM | HL-60 23 µM | MDA-MB-435 16 µM | MDA-N 16.7 µM | Malme-3M 21.1 µM | NCI-H226 22 µM | NCI/ADR-RES 21.1 µM | OVCAR-8 29.9 µM | SF-268 28.8 µM | SN12C 19.6 µM | T47D 20.6 µM | UACC-257 18.4 µM | UACC-62 14.9 µM | UO-31 32.9 µM
